Results from patent US9624235B2, “Compounds and methods for inhibition of AP endonuclease-1/redox factor-1 (HAPE1) activity” (University of Pittsburgh—Of the Commonwealth System of …, priority 2012, dated 2017).
Like-named read-outs stand apart in the source and are kept apart here. Where a SMILES comes first, the peptide text is derived from it. The star is where a group is joined. Tos = Cc1ccc(S(=O)(=O)*)cc1; Bn = c1ccc(C*)cc1

How the values were obtained:
APE-1 [1] = target: T1, APE-1 (Homo sapiens (Human), UniProt P27695); assay: Molecular beacon assay for APE-1 endonuclease inhibition; format: biochemical; details: molecular beacon assay, endonuclease activity
T1 sequence (P27695 whole entry): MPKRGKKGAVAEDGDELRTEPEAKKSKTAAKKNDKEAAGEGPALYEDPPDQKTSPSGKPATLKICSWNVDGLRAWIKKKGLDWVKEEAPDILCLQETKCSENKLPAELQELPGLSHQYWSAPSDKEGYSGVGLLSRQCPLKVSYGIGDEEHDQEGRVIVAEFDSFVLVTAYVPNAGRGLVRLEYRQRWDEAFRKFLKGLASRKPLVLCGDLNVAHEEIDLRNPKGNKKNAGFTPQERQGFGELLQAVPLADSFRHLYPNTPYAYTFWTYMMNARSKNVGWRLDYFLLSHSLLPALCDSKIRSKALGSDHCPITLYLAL
Text: Screening Assays for APE1 Inhibition—The initial screen was designed to look at the effect of potential inhibitors on APE1 repair kinetics. The approach can be used as a high throughput screen by choosing a specific timepoint to monitor. The screen utilizes a molecular beacon with a tetrahydrofuran (THF) abasic site within the stem region of a DNA hairpin that has a fluorophore on the 5′-terminus and a quencher on the 3′-terminus (FIG. 2a). […] An example of the molecular beacon screen and the excision assay are shown in FIGS. 2b,c and 2d, respectively.
Molecular Beacon Assay for Screening of APE-1 Inhibitors. A fluorescence-based molecular beacon assay to measure APE-1 protein activity and inhibition was performed as described previously with some modifications. Tang et al. Neuro Oncol. 13, 471-486 (2011) APE-1 (2 nM) in 10 mM HEPES (pH 7.8) 0.5 mM MgCl, 100 mM NaCl, 100 mM KCl, 0.0005% (w/v) BSA, was incubated with 20 nM 5′-(F)-CGACTXTTGAATTGACACGCCATGTCGATCAATTCAATAGTCG-(D)-3′ [X=tetrahydrofuran (THF) abasic site modification; F, 6-carboxyfluorescein (6-FAM); and D, DABCYL] that forms a hairpin with a 15 base pair stem and a 13 base loop. The THF modification is a known substrate for APE-1 excision. APE-1 mediated cleavage of the phosphodiester backbone at the THF-abasic site led to release of the 5′ 6-FAM (fluorophore) containing pentanucleotide, disrupting the Förster Resonance Energy Transfer (FRET) mediated quenching of the 6-FAM by DABCYL in the native hairpin oligomer. Since the signal was generated by continuous liberation of the fluorophore-labeled excision fragment, progress of this reaction could be monitored in real-time using a Cary Eclipse fluorescence spectrometer (Varian, Palo Alto, Calif.) or a Synergy H1 multi-well plate reader (BioTek, Winooski, Vt.). Reactions were optimized to yield ˜90% substrate turnover in 10 min, and fluorescence intensities measured every 12 s at 495 nm excitation and 520 nm emission. Data from the first 1-3 min of the assays (linear phase) were used to determine rate of substrate turnover (V0). The Michaelis constant (KM) was deduced experimentally, by incubating 2 nM APE-1 protein with 2-500 nM hairpin DNA substrate and measuring V0 —the experimentally observed V0 were analyzed as a function of substrate concentration [S] via non-linear regression using Prism (v.4; GraphPad Software, Inc., La Jolla, Calif.) and the KM was calculated as per the algorithm in the software package. To assay inhibition, 2 nM APE-1 protein was pre-incubated with 0.05-10.00 μM of the candidate inhibitors at 25° C. for 60 min, before initiating the excision assay by addition of hairpin DNA substrate. V0 was calculated at various concentrations of inhibitors and represented as inverse function of increasing inhibitor concentration [I]. […] All assays were carried out in three independent sets to obtain mean data and standard error of mean.
(§1) Screening for APE-1 Inhibitors. […] In this assay, the DNA hairpin substrate has a 6-FAM fluorophore on the 5′-terminus, a DABACYL fluorescence quencher on the 3′-terminus and a THF abasic site located 6 base pairs from the 5′-terminus in the stem region (FIG. 6). APE-1 activity is monitored as an increase in fluorescence due to the release of the 5′-(6-FAM)-GCACT fragment as a function of time. […] In this assay, substrate turnover was calculated from relative intensities of cleaved vs. intact oligomers and correlated with inhibitor concentration.

[2] = target: APE-1 activity in T98G cell nuclear lysates (Homo sapiens (Human), UniProt P27695); assay: Molecular beacon assay in T98G cell nuclear extracts; format: biochemical
Chain of APE-1 activity in T98G cell nuclear lysates (P27695 whole entry, stated change not applied): as the sequence (P27695 whole entry) above
Experimental: Isolation and Assay of APE-1 Protein from Nuclear Extracts of Glioma Cells. Human glioblastoma cells (T98G) were maintained in growth medium, i.e., Eagle's Minimum Essential Medium (EMEM) with 10% fetal bovine serum (FBS), […] gentamycin, 1×MEM non-essential amino acids and 1 mM sodium pyruvate. Cells were harvested by Trypsin-EDTA treatment, washed with 1×PBS and nuclear proteins isolated using the CelLytic NuCLEAR Extraction kit (Sigma-Aldrich) as per manufacturer's instructions. Isolated nuclear proteins were estimated colorimetrically (BCA protein assay) and stored at −80° C. (long term) or at −20° C. during regular use. To assay APE-1 activity in T98G cells, nuclear extracts were serially diluted in 10 mM HEPES, 50 mM KCl, 1 mM DTT, 20% (v/v) glycerol and the activities measured via the molecular beacon assay (as described above). […] EC2 nM of nuclear extracts was incubated with 2 to 500 nM hairpin DNA substrate and the V0 measured for each value of [S]. Finally, the apparent KM* was deduced using the software algorithm in Prism (as described previously), and the KM* was used to determine the apparent Ki*. Inhibition of EC2 nM APE-1 activity by the inhibitors was assayed via the molecular beacon assay (described above).
Inhibition of APE-1 Activity in Nuclear Lysates. The ability of 1-5 and 8 to block APE-1 endonuclease activity in a complex mixture of proteins from T98G cell nuclear lysates was tested using the molecular beacon assay. The APE-1 activity in the lysates was standardized to give ˜90% turnover of 25 nM substrate in 10 min.

APE-1 [3] = target: T1, APE-1; assay: Gel-based excision assay for APE-1 inhibitors; format: biochemical; details: APE-1 cleaved fragment vs. full length DNA substrate
Experimental: as §1

[4] = tested on: aldehyde reactive sites in genomic DNA from T98G cells; format: cell-based, human; details: for effect on ARS: 0.25 μM compound alone
Experimental: Quantification of Abasic Sites. T98G cells maintained in growth medium, were harvested by Trypsin-EDTA treatment, resuspended in fresh growth medium at a density of 2.5×10^5 cells mL^−1, and 2 mL (5×10^5 cells) of this suspension was seeded into the wells of a sterile 6-well tissue culture plate. Cells were allowed to grow for 24 h, treated with the various compounds for different time points and/or at different concentrations. At the end of each treatment, adherent cells were harvested by trypsin-EDTA treatment and pooled with live and dead cells in culture supernatant. Pooled cells in suspension were pelleted by centrifugation, washed with 1×PBS and genomic DNA was isolated using the DNAzol reagent (Invitrogen). DNA in solution was quantified by UV absorbance (λ260 nm) using a Synergy H1 multiwell plate reader (BioTek, Winooski, Vt.). Abasic sites in purified DNA were then reacted with the biotin-conjugated aldehyde reactive probe (ARP), immobilized onto 96-well ELISA plates, and detected using horseradish peroxidase (HRP)-conjugated streptavidin using a colorimetric substrate as per manufacturer's instructions (Dojindo Molecular Technologies, Rockville, Md.).
The biotin tagged ARS are quantified using an avidin-biotin assay, followed by colorimetric detection with horseradish peroxidase conjugated to avidin.

unmodified hairpin DNA = assay: EtBr fluorescence titration with hairpin DNA; format: binding
Experimental: (§2) Fluorescence and UV Spectrometry Binding Studies. The fluorescence spectra were measured at room temperature on a Cary Eclipse fluorescence spectrometer (Varian, Palo Alto, Calif.). The fluorescence properties of 1 and 4 were measured in 10 mM HEPES, 0.5 mM MgCl2, 100 mM KCl, 100 mM NaCl, 2% glycerol, in absence or presence of wild type (unmodified) hairpin DNA (5′-[…]-3′) or THF-modified hairpin DNA (5′-[…]-3′) or APE-1 protein. A solution of 0.5 μM of either DNA sequence was titrated against 1-10 μM ethidium bromide (EtBr) to determine saturation of EtBr by fluorescence (530 nm excitation with 610 nm emission) and the subsequent displacement of EtBr (4 μM) by 1-20 μM 1 or 4 was also assayed. The APE protein-inhibitor binding fluorescence was assayed by titrating 0.1-20 μM of 4 against 1 μM of APE-1 protein.
(§3) Interaction of Inhibitors with DNA. A potential mechanism by which compounds can block APE-1 activity involves the interaction with the DNA substrate by intercalation. Such binding to DNA could sterically reduce the accessibility of the protein to the abasic site substrate. […] To further probe the potential role of intercalation, the effect of EtBr on the fluorescence of 1 and 4 were determined. […] The small changes in the fluorescence of 4 with both DNAs indicate little discrimination for the THF lesion.

THF modified hairpin DNA = assay: EtBr fluorescence titration with hairpin DNA; format: binding
Experimental: as §2, §3

double-stranded DNA = details: cited from earlier work
T98G cells [5] = assay: Short term (72 h) MTS cytotoxicity assay; format: cell-based, human; details: 72 h MTS assay
Experimental: (§4) Cytotoxic Effects of APE-1 Inhibitors on Cultured Human Glioblastoma (T98G) Cells. Human glioblastoma cells (T98G) were maintained in growth medium as described above. […] The cells were allowed to attach and grow for 24 h, and then treated with serial dilutions of the drug for 72 h. After treatment, viable cells were measured by an MTS assay using the CellTiter 96 AQueous kit (Promega) as per manufacturer's instructions. […] The cells were allowed to attach and grow for 24 h and treated with serial dilutions of the drug for 240 h. After treatment, viable cells were measured using the CyQUANT cell proliferation assay kit (Invitrogen) as per manufacturer's instructions.
(§5) Toxicity. It was assumed that inhibition of APE-1 activity would be lead to toxicity since genetic deletion of the protein is lethal to cells. […] The toxicities were also determined in combination with the DNA minor groove methylating agent, MeLex. MeLex efficiently and selectively generates N3-methyladenine, which is converted into an abasic site by a BER glycosylase and/or hydrolytic depurination. The T98G cell line is relatively resistant to DNA damaging anticancer agents due to expression of multiple drug resistance proteins and O^6-alkylguanine-DNA alkyltransferase. […] A goal of the development of APE-1 inhibitors is to determine if they can be used to enhance the activity of DNA alkylating agents.

T98G cells [6] = assay: Potentiation of MeLex cytotoxicity, short term (72 h) MTS assay; format: cell-based, human; details: 72 h MTS assay
Experimental: (§6) Cytotoxic Potentiation of Various DNA Damaging Agents. T98G cells maintained in growth medium were resuspended in fresh growth medium and seeded into 96-well plates at 2000 cells/well (short term cytotoxicity) or 100 cells/well (long term cytotoxicity) as described in the previous section. After 24 h, the cells were treated with serial dilutions of various DNA damaging drugs in absence or presence of APE-1 inhibitors. At the end of the treatment period, cell survival was assayed using CellTiter 96 AQueous or CyQUANT kits for the short- and long-term studies respectively.
as §5

T98G cells [7] = assay: Long term (10-day) CyQUANT cytotoxicity assay; format: cell-based, human; details: long term assay
Experimental: as §4, §5

T98G cells [8] = assay: Potentiation of MeLex cytotoxicity, long term (10 d) CyQUANT assay; format: cell-based, human
Experimental: as §6, §5

[9] = read-out: Ki APE-1 endonuclease inhibition (ND classes)
[10] = read-out: Ki APE-1 endonuclease inhibition

Compound | Ki (APE-1 [1]; [9]) | Ki (APE-1 [1]; [10]) | also measured
O=C(NNc1ccnc2cc(Cl)ccc12)/C(=C/c1ccccc1Cl)NC(=O)c1ccccc1 [Compound 15] | > 100 µM | – | –
O=C(O)C(Cc1c[nH]c2ccc(O)cc12)NCC1(O)OCC(O)C(O)C1O (stereo not shown) [Compound 19] | > 100 µM | – | –
CC(=O)N1N=C(c2cccc(NS(C)(=O)=O)c2)CC1c1cc2cc(C)c(C)cc2nc1Cl (stereo not shown) [Compound 30] | > 100 µM | – | –
Cn1c(=N)[nH]c2c(nc(OCc3ccccc3)n2C2OC(O)C(O)C2O)c1=O (stereo not shown) [Compound 21] | > 100 µM | – | –
COc1ccc(C2C3=C(CC(C)(C)CC3=O)Oc3cc4c(cc32)OCO4)c(OC)c1 (stereo not shown) [Compound 12] | – | 32 µM | –
N=c1[nH]nc2nc(CC(=O)c3ccccc3[N+](=O)[O-])c(CC(=O)c3ccccc3[N+](=O)[O-])nn12 [Compound 13] | – | 4.9 µM | –
O=C(/C=C(/Nc1ccccc1)C(=O)c1ccccc1)c1ccccc1 [Compound 14] | – | 37 µM | –
COc1cccc(/C=N/Nc2cc(C)nc3cc4c(cc23)OCO4)c1 [Compound 2] | – | 0.22 µM | Ki [2]: 0.24 µM; IC50 (APE-1 [3]): 10.1 µM
CC[n+]1c(-c2ccccc2)c2cc(N)ccc2c2ccc(N)cc21 [EtBr, ethidium bromide] | – | 1.8 µM | effect on ARS [4]: no effect; level of ARS in combination with MeLex ([4]; 80 μM MeLex + 0.25 μM compound, after 6 h): dropped off; Kd (unmodified hairpin DNA): 1.6 µM; Kd (THF modified hairpin DNA): 1.8 µM; Kd (double-stranded DNA): ~1 µM
Cc1ccc(S(=O)(=O)NC(CSCc2ccccc2)C(=O)NC(Cc2ccc(O)cc2)C(=O)O)cc1 (stereo not shown) [Compound 25] (Tos-Cys(Bn)-Tyr-OH; configuration not given here) | > 100 µM | – | –
C/C(=N\Nc1cc(C)c2ccccc2n1)c1cn(C)n(-c2ccccc2)c1=O [Compound 8] | > 100 µM | – | effect on ARS [4]: same as background; IC50 (APE-1 [3]): > 100 µM
Nc1ncnc2c1ncn2C1OC(C(=O)NCC(=O)O)C(O)C1O (stereo not shown) [Compound 16] | > 100 µM | – | –
CCOC(=O)CC/C(=C\NC(=O)c1ccccc1)NC(=O)c1ccccc1 [Compound 26] | > 100 µM | – | –
C/C(=N\Nc1cc(C)nc2ccc(C)cc12)c1cn(C)n(-c2ccccc2)c1=O [Compound 7] | – | 10.9 µM | –
CC(N)C(=O)NC1C(CO)OC(n2cnc3c(N)ncnc32)C1O (stereo not shown) [Compound 17] | > 100 µM | – | –
CC(NC(=O)/C(=C/c1ccccc1)NC(=O)c1ccccc1)c1ccccc1 (stereo not shown) [Compound 22] | > 100 µM | – | –
C=C(C[N+](=O)[O-])NC(CCCCNc1ccc([N+](=O)[O-])cc1N(O)O)C(=O)O (stereo not shown) [Compound 9] | – | 13 µM | –
CCc1cc2cc(C)c(C)cc2nc1SCC(=O)N1CCN(C(=O)c2ccco2)CC1 [Compound 29] | > 100 µM | – | –
C/C(=N\Nc1cc(C)nc2cc3c(cc12)OCO3)c1cn(C)n(-c2ccccc2)c1=O [Compound 1] | – | 0.18 µM | level of ARS in combination with MeLex ([4]; 80 μM MeLex + 0.25 μM inhibitor, through at least 12 h): 50 sites/10^5 nucleotides; Ki [2]: 0.45 µM; LD10 concentration (T98G cells [5]): 2.20 µM; LD50 of MeLex in the presence of LD10 concentration of inhibitor (T98G cells [6]): 54 µM; LD10 concentration (T98G cells [7]): 0.17 µM; LD50 of MeLex in the presence of LD10 concentration of inhibitor (T98G cells [8]): 2.0 µM; IC50 (APE-1 [3]): 4.4 µM
COc1ccc(/C(Cc2ccccc2)=N\Nc2ccc([N+](=O)[O-])c([N+](=O)[O-])c2)cc1 [Compound 11] | – | 6.7 µM | –
Cc1cc2cc3c(cc2n2c(SCC(=O)N4c5ccccc5CCc5ccccc54)nnc12)OCO3 [Compound 28] | > 100 µM | – | –
C/C=C/C(=O)NCCCCNC(=O)/C=C/c1ccc([N+](=O)[O-])cc1 [Compound 10] | – | 17 µM | –
Cc1cc(N/N=C/c2ccc([N+](=O)[O-])o2)c2cc3c(cc2n1)OCO3 [Compound 6] | – | 0.64 µM | –
O=C(O)CC1(CC(=O)NCCc2c[nH]c3ccccc23)OCCO1 [Compound 18] | > 100 µM | – | –
